From patent US20160297761A1, “NOVEL INHIBITORS OF GLUTAMINASE” (RHIZEN PHARMACEUTICALS SA, priority 2014, published 2016)
Like-named read-outs stand apart in the source and are kept apart here.

What was measured:
[1] = biological target: T1, L-glutaminase present in mice brain homogenate (Glutaminase(Brain)) (Mus musculus, UniProt D3Z7P3); assay: Glutaminase enzyme activity using glutaminase enzyme from mice brain/kidney homogenate (Nessler's reagent, ammonia); assay type: biochemical; conditions: for inhibition at 0.1 µM: read-out: Glutaminase(Brain) activity % inhibition 0.1 μM; for inhibition at 1 µM: read-out: Glutaminase(Brain) activity % inhibition @1 μM
T1 sequence (D3Z7P3 55-674): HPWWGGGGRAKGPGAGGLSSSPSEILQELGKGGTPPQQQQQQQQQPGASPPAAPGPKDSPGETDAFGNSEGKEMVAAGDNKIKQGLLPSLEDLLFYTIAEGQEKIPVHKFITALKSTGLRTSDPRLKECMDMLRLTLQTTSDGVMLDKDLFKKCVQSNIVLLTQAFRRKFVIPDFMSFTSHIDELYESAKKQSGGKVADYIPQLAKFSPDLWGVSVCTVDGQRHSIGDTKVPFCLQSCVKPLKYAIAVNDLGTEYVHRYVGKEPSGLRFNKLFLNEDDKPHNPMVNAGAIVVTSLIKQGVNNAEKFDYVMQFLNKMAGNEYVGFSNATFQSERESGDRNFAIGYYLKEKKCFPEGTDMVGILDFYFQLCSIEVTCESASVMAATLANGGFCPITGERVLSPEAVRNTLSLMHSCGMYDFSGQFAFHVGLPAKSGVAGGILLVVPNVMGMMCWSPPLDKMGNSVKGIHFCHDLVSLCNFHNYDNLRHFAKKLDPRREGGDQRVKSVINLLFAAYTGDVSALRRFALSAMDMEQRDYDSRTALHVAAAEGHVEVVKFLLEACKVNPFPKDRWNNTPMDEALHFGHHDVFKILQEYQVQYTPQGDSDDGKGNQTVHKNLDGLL
Description: Assay 3: Determination of Glutaminase Enzyme Activity Using Glutaminase
Enzyme from Mice Brain/Kidney
Step 1: Preparation of Tissue Homogenates: Male Balb/c mice were administered 0.28 M ammonium chloride in drinking water for 7 days. The animals were sacrificed and brain/kidney organs collected on dry ice. […] The tissue was homogenized and supernatants were stored at −80° C. until the enzyme assay was performed.
Aim: Compounds were assessed for their ability to inhibit the enzymatic activity of L-glutaminase present in mice brain/kidney homogenate.
Protocol: The assay was performed using a colorimetric method using Nessler's Reagent by quantifying the amount of ammonia formed as a by product during the enzymatic conversion of L-glutamine to glutamate. In the routine assay, 16 μl of tissue homogenate is added to 33 μl of Tris-Hcl phosphate buffer (pH 8) along with 1 μl of DMSO/test compound containing the desired final concentration and vortexed briefly. 50 μl of 20 mM L-glutamine Tris buffer is added to start the reaction and incubated for 15 minutes at 37° C. The ammonia formed is detected by adding 20 μl of reaction mixture to cold water in a 96 well plate followed by 20 μl of Nessler's reagent. The colour developed is measured at 450 nm. Data Analysis: Activity of the test compound is reported as % inhibition and the data is analyzed using Graphpad Prism (Graphpad software; San Diego Calif.) for IC50 determination.

cancer cell lines = assay: In vitro cell proliferation assay in cancer cell lines (MTT dye reduction, 72 h); assay type: cell-based; conditions: cancer cell line not named, 10% FBS media
Description: Assay 4: In Vitro Cell Proliferation Assay in Cancer Cell Lines
Growth inhibition assays were carried out using 10% FBS supplemented media. Cells were seeded at a concentration of 5000-20,000 cells/well in a 96-well plate. Test compounds at a concentration range from 0.01 to 10000 nM were added after 24 hours. Growth was assessed using the 3-[4,5-dimethylthiazol-2-yl]-2,5-diphenyltetrazolium bromide (MIT) dye reduction test at 0 h (prior to the addition of the test compound) and 72 hours after the addition of test compound. Absorbance was read on a Fluostar Optima (BMG Labtech, Germany) at a wave length of 450 nm. Data were analysed using GraphPad Prism and percent inhibition due to the test compound compared to the control was calculated accordingly.

Row | SMILES | inhibition at 0.1 µM ([1]; 0.1 μM, mice brain homogenate) [%] | inhibition at 1 µM ([1]; 1 μM, mice brain homogenate) [%] | GI50 (cancer cell lines) [nM] | melting point [°C] | inhibition at 0.1 µM [1] [%] | inhibition at 1 µM [1] [%]
1 | O=C(Cc1cccnc1)Nc1ccc(CC2CC(c3nnc(NC(=O)Cc4cccc(OC(F)(F)F)c4)s3)C2)cn1 (stereo not shown) [Example-109, 2-(Pyridin-3-yl)-N-(5-((3-(5-(2-(3-(trifluoromethoxy)phenyl)acetamido)-1,3,4-thiadiazol-2-yl)cyclobutyl)methyl)pyridin-2-yl)acetamide] | 50 to 75 | 75 to 100 | < 100 |  |  | 
2 | O=C(Cc1ccccn1)Nc1nnc(CCCCc2ccc(NC(=O)Cc3cccc(OC(F)(F)F)c3)c(F)c2)s1 [Example-41, N-(5-(4-(3-Fluoro-4-(2-(3-(trifluoromethoxy)phenyl)acetamido)phenyl)butyl)-1,3,4-thiadiazol-2-yl)-2-(pyridin-2-yl)acetamide] | < 25 | < 25 |  | 164 to 168 |  | 
3 | CS(=O)(=O)Nc1cccc(CC(=O)Nc2nnc(CCCCc3ccc(NC(=O)Cc4cccc(OC(F)(F)F)c4)nc3)s2)c1 [Example-30, 2-(3-(Methylsulfonamido)phenyl)-N-(5-(4-(6-(2-(3-(trifluoromethoxy)phenyl)acetamido)pyridin-3-yl)butyl)-1,3,4-thiadiazol-2-yl)acetamide] | 50 to 75 | 75 to 100 | 1000 to 5000 |  |  | 
4 | O=C(Cc1cccnc1)Nc1ccc(CCCCc2nnc(NC(=O)Cc3cccc(F)c3)s2)cn1 [Example-20, 2-(3-Fluorophenyl)-N-(5-(4-(6-(2-(pyridin-3-yl)acetamido)pyridin-3-yl)butyl)-1,3,4-thiadiazol-2-yl)acetamide] | 75 to 100 | 75 to 100 | 400 to 1000 |  |  | 
5 | O=C(Cc1cccc(OC(F)(F)F)c1)Nc1ccc(CC2CC(c3nnc(NC(=O)Cc4ccccn4)s3)C2)cn1 (stereo not shown) [Example-107, 2-(Pyridin-2-yl)-N-(5-(3-((6-(2-(3-(trifluoromethoxy)phenyl)acetamido)pyridin-3-yl)methyl)cyclobutyl)-1,3,4-thiadiazol-2-yl)acetamide] | 25 to 50 | 50 to 75 | 400 to 1000 |  |  | 
6 | O=C(Cc1cccnc1)Nc1ccc(CCCCc2nnc(NC(=O)Cc3cccc(Cl)c3)s2)cn1 [Example-18, 2-(3-Chlorophenyl)-N-(5-(4-(6-(2-(pyridin-3-yl)acetamido)pyridin-3-yl)butyl)-1,3,4-thiadiazol-2-yl)acetamide] | 50 to 75 | 75 to 100 | 100 to 400 |  |  | 
7 | O=C(Cc1ccccn1)Nc1ccc(CCCCc2nnc(NC(=O)Cc3cccc(OC(F)(F)F)c3)s2)c(F)n1 [Example-32, N-(6-fluoro-5-(4-(5-(2-(3-(trifluoromethoxy)phenyl)acetamido)-1,3,4-thiadiazol-2-yl)butyl)pyridin-2-yl)-2-(pyridin-2-yl)acetamide] | < 25 | 75 to 100 | 400 to 1000 |  |  | 
8 | O=C(Cc1cccc(OC(F)(F)F)c1)Nc1ccc(CCCCc2nnc(NC(=O)Cc3cccnc3)s2)c(F)n1 [Example-21, N-(6-Fluoro-5-(4-(5-(2-(pyridin-3-yl)acetamido)-1,3,4-thiadiazol-2-yl)butyl)pyridin-2-yl)-2-(3-(trifluoromethoxy)phenyl)acetamide] | 50 to 75 | 75 to 100 | < 100 |  |  | 
9 | O=C(Cc1cccc(OC(F)(F)F)c1)Nc1ccc(CC2CC(c3nnc(NC(=O)Cc4cccnc4)s3)C2)cn1 (stereo not shown) [Example-108, 2-(Pyridin-3-yl)-N-(5-(3-((6-(2-(3-(trifluoromethoxy)phenyl)acetamido)pyridin-3-yl)methyl)cyclobutyl)-1,3,4-thiadiazol-2-yl)acetamide] | 75 to 100 | 75 to 100 | 100 to 400 |  |  | 
10 | O=C(Cc1ccccn1)Nc1ccc(CCCCc2nnc(NC(=O)Cc3cccnc3)s2)c(F)n1 [Example-38, N-(6-fluoro-5-(4-(5-(2-(pyridin-3-yl)acetamido)-1,3,4-thiadiazol-2-yl)butyl)pyridin-2-yl)-2-(pyridin-2-yl)acetamide] | 25 to 50 | 75 to 100 | < 100 |  |  | 
11 | O=C(Cc1ccccc1)Nc1nnc(C2CCC(c3nnc(NC(=O)Cc4ccccc4)s3)CC2)s1 (stereo not shown) [Example-101, N,N′-(5, 5′-(cyclohexane-1,4-diyl)bis(1,3,4-thiadiazole-5,2-diyl))bis(2-phenylacetamide)] |  |  |  | 281 to 283 |  | 
12 | O=C(Cc1cccc(OC(F)(F)F)c1)Nc1ccc(CCCCc2nnc(NC(=O)Cc3ccccn3)s2)c(F)n1 [Example-29, N-(6-fluoro-5-(4-(5-(2-(pyridin-2-yl)acetamido)-1,3,4-thiadiazol-2-yl)butyl)pyridin-2-yl)-2-(3-(trifluoromethoxy)phenyl)acetamide] | 50 to 75 | 75 to 100 | 1000 to 5000 |  |  | 
13 | O=C(Cc1cccc(OC(F)(F)F)c1)Nc1ccc(CCCCc2nnc(NC(=O)Cc3cccc(OC(F)(F)F)c3)s2)cn1 [Example-16, 2-(3-(Trifluoromethoxy)phenyl)-N-(5-(4-(5-(2-(3-(trifluoromethoxy)phenyl)acetamido)-1,3,4-thiadiazol-2-yl)butyl)pyridin-2-yl)acetamide] | 25 to 50 | 50 to 75 | < 100 |  |  | 

Results, then the compound that gave them:

Row | inhibition at 0.1 µM ([1]; 0.1 μM, mice brain homogenate) [%] | inhibition at 1 µM ([1]; 1 μM, mice brain homogenate) [%] | GI50 (cancer cell lines) [nM] | melting point [°C] | inhibition at 0.1 µM [1] [%] | inhibition at 1 µM [1] [%] | SMILES
14 | 25 to 50 | 75 to 100 | 100 to 400 |  |  |  | N#Cc1cccc(CC(=O)Nc2nnc(CCCCc3ccc(NC(=O)Cc4cccc(OC(F)(F)F)c4)nc3)s2)c1 [Example-17, 2-(3-Cyanophenyl)-N-(5-(4-(6-(2-(3-(trifluoromethoxy)phenyl)acetamido)pyridin-3-yl)butyl)-1,3,4-thiadiazol-2-yl)acetamide]
15 | 75 to 100 | 50 to 75 | 1000 to 5000 |  |  |  | O=C(Cc1cccc(OC(F)(F)F)c1)Nc1ccc(CCCCc2nnc(NC(=O)Cc3cnccn3)s2)cn1 [Example-28, 2-(Pyrazin-2-yl)-N-(5-(4-(6-(2-(3-(trifluoromethoxy)phenyl)acetamido)pyridin-3-yl)butyl)-1,3,4-thiadiazol-2-yl)acetamide]
16 | 75 to 100 | 75 to 100 | < 100 |  |  |  | O=C(Cc1cccnc1)Nc1ccc(CCCCc2nnc(NC(=O)Cc3cccc(OC(F)(F)F)c3)s2)cn1 [Example-11, 2-(Pyridin-3-yl)-N-(5-(4-(5-(2-(3-(trifluoromethoxy)phenyl)acetamido)-1,3,4-thiadiazol-2-yl)butyl)pyridin-2-yl)acetamide]
17 | < 25 | < 25 | 400 to 1000 |  |  |  | CCC(Cl)C(=O)Nc1nnc(CCCCc2ccc(NC(=O)Cc3cccc(OC(F)(F)F)c3)nc2)s1 (stereo not shown) [Example-24, 2-Chloro-N-(5-(4-(6-(2-(3-(trifluoromethoxy)phenyl)acetamido)pyridin-3-yl)butyl)-1,3,4-thiadiazol-2-yl)butanamide]
18 |  |  | 400 to 1000 |  | 50 to 75 | 75 to 100 | O=C(Cc1cccc(OC(F)(F)F)c1)Nc1ccc(CCCCc2nnc(NC(=O)Cc3ccccn3)s2)cn1 [Example 3, 2-(Pyridin-2-yl)-N-(5-(4-(6-(2-(3-(trifluoromethoxy)phenyl)acetamido)pyridin-3-yl)butyl)-1,3,4-thiadiazol-2-yl)acetamide]
19 | 50 to 75 | 75 to 100 | 5000 to 10000 |  |  |  | CS(=O)(=O)Nc1ccc(CC(=O)Nc2nnc(CCCCc3ccc(NC(=O)Cc4cccc(OC(F)(F)F)c4)nc3)s2)cc1 [Example-31, 2-(4-(Methylsulfonamido)phenyl)-N-(5-(4-(6-(2-(3-(trifluoromethoxy)phenyl)acetamido)pyridin-3-yl)butyl)-1,3,4-thiadiazol-2-yl)acetamide]
